Data taken from US10781325B2, “Curable composition, curable ink, accommodating container, image forming device, image forming method, cured matter, and acrylamide compound” (Ricoh Company, Ltd., priority 2016, dated 2020).

Legend:
[1] = Measuring of viscosity of curable compound (cone plate type rotatory viscometer); assay type: physicochemical; details: cone rotor, 50 rpm
Procedure: Viscosity of the thus-obtained curable compound was measured by a cone plate type rotatory viscometer (VISCOMETER TVE-22L, manufactured by TOKI SANGYO CO., LTD.) using a cone rotor (1°34′×R24) at a number of rotation of 50 rpm and at 25 degrees C. of hemathermal circulating water.

[2] = test system: female rats of Slc: Wistar/ST series; assay: Limiting test based on Acute Oral Toxicity Test (OECD TG423, Acute Toxic Class Method); assay type: in vivo, rat; details: single gavage dose 2,000 mg/kg weight of body, six animals per testing article, observed 14 days
Text: The curable compounds of Example 1a, Example 4a, Comparative Example 1a, and Comparative Example 2a were subject to the limiting test based on Acute Oral Toxicity Test (OECD TG423) according to Acute Toxic Class Method in the following manner to evaluate safeness.
Regarding the curable compound of the present disclosure as test article, 24 female rats of Slc: Wistar/ST series of 5 week old as animal used were ordered for Japan SLC, Inc. The animals were habituated for one week. No abnormalities were found in all of the rats (animals used) during the habituation period.
Based on the body weights measured two days before the initiation of administration, they were categorized into four groups (six rats per group) by the body weight stratified random sampling method so that the body weight of each individual was within ±20% of the average body weight of all of the individuals. The individuals not classified into the groups were excluded from the test.
First group, Example 1a: Testing article: curable compound represented by the chemical structure a1-1, Amount of administration: 2,000 mg/kg weight of body, number of animals used: six
Second group, Example 4a: Testing article: curable compound represented by the chemical structure d1-1, Amount of administration: 2,000 mg/kg weight of body, number of animals used: six
Third group, Comparative Example 1a: Testing article: N,N-diethylacrylamide represented by the chemical structure (1), Amount of administration: 2,000 mg/kg weight of body, number of animals used: six
Fourth group, Comparative Example 2a: Testing article: Acrylamide represented by the chemical structure (2), Amount of administration: 2,000 mg/kg weight of body, number of animals used: six
100 mg of the testing article was weighed using a measuring flask and water was added as solvent to make 1 mL in total. […] The preparation liquid of the testing article was prepared on the day of administration.
The animals used were on fasting except for water for 17 hours before administration. The mass was measured after the fasting and the testing article was provided by gavage administration one time using a gastric tube. After the administration, no food was given for another three to four hours.
The administration was on one dose of 2,000 mg/kg weight of body and six animals were used per testing article.
Note that the observation was counted from the day of the initiation of administration being regarded as Day 1.
The number of animals who died during the test period was counted.

Row | Structure (SMILES) | Viscosity (25 degrees C., mPA · s) [1] | Safeness (number of dead) [2]
1 | C=CC(=O)N(CC)CC [Comparative Example 1a, N,N-diethylacrylamide, reference compound] | 2.6 mPA · s | 6
2 | C=CC(=O)N(C)CCOC [Comparative Example 2a, reference compound] | 2.4 mPA · s | 6
3 | C=CC(=O)N(CC(=O)OCC)CC(=O)OCC [Comparative Example 3a, reference compound] | 69.2 mPA · s | 
4 | C=CC(=O)N(C)CCOC(C)=O [Example 1a] | 8.4 mPA · s | 3
5 | C=CC(=O)N(C)CCOC(=O)C(C)C [Example 2a] | 9.5 mPA · s | 
6 | C=CC(=O)N(C)CC(=O)OC [Example 4a] | 12.3 mPA · s | 0
7 | C=CC(=O)N(C)CC(=O)OCCCC [Example 6a] | 11.9 mPA · s | 
8 | C=CC(=O)N(CCC)CC(=O)OCC [Example 8a] | 20.4 mPA · s | 
9 | C=CC(=O)N(CC(=O)OC)C(C)C [Example 9a] | 25.4 mPA · s | 
10 | C=CC(=O)N(CC(=O)OC(C)C)C(C)C [Example 10a] | 22.1 mPA · s | 
11 | C=CC(=O)N(C)C(C)C(=O)OCC (stereo not shown) [Example 14a] | 6.9 mPA · s | 
12 | C=CC(=O)N(C)C(C)C(=O)OC(C)C (stereo not shown) [Example 15a] | 6.8 mPA · s | 

Further lines, with some results ahead:

Row | Viscosity (25 degrees C., mPA · s) [1] | Structure (SMILES) | Safeness (number of dead) [2]
13 | 16.4 mPA · s | C=CC(=O)N(CCOC(C)=O)C(C)(C)C [Example 3a] | 
14 | 11.4 mPA · s | C=CC(=O)N(C)CC(=O)OCC [Example 5a] | 
15 | 14.1 mPA · s | C=CC(=O)N(C)CC(=O)OC(C)C [Example 7a] | 
16 | 29.9 mPA · s | C=CC(=O)N(CCCCCC)CC(=O)OC [Example 11a] | 
17 | 23.7 mPA · s | C=CC(=O)N(CCCCCC)CC(=O)OCCCC [Example 12a] | 
18 | 8.9 mPA · s | C=CC(=O)N(C)C(C)C(=O)OC (stereo not shown) [Example 13a] | 
